Test results: ChEMBL document CHEMBL1201861, “Genomics of Drug Sensitity in Cancer screening data, Wellcome Trust Sanger Institute”

Assays:
Assay in all cases: cells
Format in all cases: functional, cell-based, Homo sapiens
COLO-800 = conditions: Homo sapiens, COLO-800;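 also: growth inhibition of COLO-800 cells, read out with a cell viability assay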
Description: SANGER: Inhibition of human COLO-800 cell growth in a cell viability assay.

CP66-MEL = conditions: Homo sapiens, CP66-MEL;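 also: growth inhibition of CP66-MEL cells determined in a cell viability assay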
Description: SANGER: Inhibition of human CP66-MEL cell growth in a cell viability assay.

D283 Med = conditions: Homo sapiens, D283 Med
Description: SANGER: Inhibition of human D-283MED cell growth in a cell viability assay.

D-502MG = conditions: Homo sapiens, D-502MG
Description: SANGER: Inhibition of human D-502MG cell growth in a cell viability assay.

DMS-79 = conditions: Homo sapiens, DMS-79;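 also: growth inhibition measured with a cell viability assay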
Description: SANGER: Inhibition of human DMS-79 cell growth in a cell viability assay.

EC-GI-10 = conditions: Homo sapiens, EC-GI-10
Description: SANGER: Inhibition of human EC-GI-10 cell growth in a cell viability assay.

ES3 = conditions: Homo sapiens, ES3;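 also: growth inhibition of ES3 cells, read out with a cell viability assay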
Description: SANGER: Inhibition of human ES3 cell growth in a cell viability assay.

ES8 = conditions: Homo sapiens, ES8;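 also: growth inhibition of human ES8 cells, read out with a cell viability assay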
Description: SANGER: Inhibition of human ES8 cell growth in a cell viability assay.

EW-18 = conditions: Homo sapiens, EW-18;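 also: growth inhibition of EW-18 cells, read out by a cell viability assay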
Description: SANGER: Inhibition of human EW-18 cell growth in a cell viability assay.

EW-3 = conditions: Homo sapiens, EW-3;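 also: cell viability assay read-out, IC50 reflects inhibition of growth of the EW-3 cells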
Description: SANGER: Inhibition of human EW-3 cell growth in a cell viability assay.

GT3TKB = conditions: Homo sapiens, GT3TKB;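 also: growth inhibition of the cell line, read out with a cell viability assay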
Description: SANGER: Inhibition of human GT3TKB cell growth in a cell viability assay.

HCC 2998 = conditions: Homo sapiens, HCC 2998;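 also: growth inhibition of human HCC2998 cells, measured with a cell viability read-out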
Description: SANGER: Inhibition of human HCC2998 cell growth in a cell viability assay.

HDLM-2 = conditions: Homo sapiens, HDLM-2;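 also: cell viability assay measuring suppression of HDLM-2 proliferation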
Description: SANGER: Inhibition of human HDLM-2 cell growth in a cell viability assay.

HOP-62 = conditions: Homo sapiens, HOP-62;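 also: cell growth inhibition determined with a viability assay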
Description: SANGER: Inhibition of human HOP-62 cell growth in a cell viability assay.

HT = conditions: Homo sapiens, HT
Description: SANGER: Inhibition of human HT cell growth in a cell viability assay.

IST-MEL1 = conditions: Homo sapiens, IST-MEL1;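 also: growth inhibition of the cell line, read out with a cell viability assay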
Description: SANGER: Inhibition of human IST-MEL1 cell growth in a cell viability assay.

IST-MES1 = conditions: Homo sapiens, IST-MES1;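 also: growth inhibition of IST-MES1 cells, measured with a cell viability assay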
Description: SANGER: Inhibition of human IST-MES1 cell growth in a cell viability assay.

JVM-3 = conditions: Homo sapiens, JVM-3;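 also: growth inhibition of human JVM-3 cells, read out with a cell viability assay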
Description: SANGER: Inhibition of human JVM-3 cell growth in a cell viability assay.

KARPAS-299 = conditions: Homo sapiens, KARPAS-299
Description: SANGER: Inhibition of human KARPAS-299 cell growth in a cell viability assay.

KM-H2 = conditions: Homo sapiens, KM-H2;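 also: growth inhibition of KM-H2 cells, read out by a cell viability assay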
Description: SANGER: Inhibition of human KM-H2 cell growth in a cell viability assay.

KMOE-2 = conditions: Homo sapiens, KMOE-2;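 also: growth inhibition of human KMOE-2 cells, read out with a cell viability assay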
Description: SANGER: Inhibition of human KMOE-2 cell growth in a cell viability assay.

KNS-81-FD = conditions: Homo sapiens, KNS-81-FD;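 also: growth inhibition of KNS-81-FD cells, read out with a cell viability assay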
Description: SANGER: Inhibition of human KNS-81-FD cell growth in a cell viability assay.

KS-1 = conditions: Homo sapiens, KS-1;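 also: growth inhibition of KS-1 cells, read out with a cell viability assay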
Description: SANGER: Inhibition of human KS-1 cell growth in a cell viability assay.

LB1047-RCC = conditions: Homo sapiens, LB1047-RCC;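 also: inhibition of cell growth, determined with a cell viability assay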
Description: SANGER: Inhibition of human LB1047-RCC cell growth in a cell viability assay.

LB373-MEL-D = conditions: Homo sapiens, LB373-MEL-D;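 also: growth inhibition of the cell line, read out in a cell viability assay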
Description: SANGER: Inhibition of human LB373-MEL-D cell growth in a cell viability assay.

LC-2-ad = conditions: Homo sapiens, LC-2-ad;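 also: growth inhibition of human LC-2-ad cells, read out with a cell viability assay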
Description: SANGER: Inhibition of human LC-2-ad cell growth in a cell viability assay.

LS-513 = conditions: Homo sapiens, LS-513
Description: SANGER: Inhibition of human LS-513 cell growth in a cell viability assay.

MHH-NB-11 = conditions: Homo sapiens, MHH-NB-11;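 also: growth inhibition of human MHH-NB-11 cells, read out by a cell viability assay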
Description: SANGER: Inhibition of human MHH-NB-11 cell growth in a cell viability assay.

MMAC-SF = conditions: Homo sapiens, MMAC-SF;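 also: growth inhibition of human MMAC-SF cells, read out with a cell viability assay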
Description: SANGER: Inhibition of human MMAC-SF cell growth in a cell viability assay.

NB10 = conditions: Homo sapiens, NB10;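 also: growth inhibition of NB10 cells, read out by a cell viability assay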
Description: SANGER: Inhibition of human NB10 cell growth in a cell viability assay.

NCI-H1092 = conditions: Homo sapiens, NCI-H1092;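 also: cell growth inhibition measured with a cell viability assay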
Description: SANGER: Inhibition of human NCI-H1092 cell growth in a cell viability assay.

NCI-H1155 = conditions: Homo sapiens, NCI-H1155;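 also: cell growth inhibition measured by a viability assay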
Description: SANGER: Inhibition of human NCI-H1155 cell growth in a cell viability assay.

NCI-H1648 = conditions: Homo sapiens, NCI-H1648;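 also: cell viability assay measuring inhibition of NCI-H1648 cell growth, from the Sanger screening data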
Description: SANGER: Inhibition of human NCI-H1648 cell growth in a cell viability assay.

NCI-H1770 = conditions: Homo sapiens, NCI-H1770;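 also: growth inhibition of NCI-H1770 cells determined with a viability readout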
Description: SANGER: Inhibition of human NCI-H1770 cell growth in a cell viability assay.

NCI-H69 = conditions: Homo sapiens, NCI-H69;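 also: growth inhibition of the cell line, read out with a cell viability assay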
Description: SANGER: Inhibition of human NCI-H69 cell growth in a cell viability assay.

NCI-H747 = conditions: Homo sapiens, NCI-H747;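 also: growth inhibition of human NCI-H747 cells, read out by a cell viability assay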
Description: SANGER: Inhibition of human NCI-H747 cell growth in a cell viability assay.

NEC8 = conditions: Homo sapiens, NEC8;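 also: growth inhibition of human NEC8 cells, read out by a cell viability assay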
Description: SANGER: Inhibition of human NEC8 cell growth in a cell viability assay.

OMC-1 = conditions: Homo sapiens, OMC-1;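 also: growth inhibition of the OMC-1 cell line, measured by a cell viability assay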
Description: SANGER: Inhibition of human OMC-1 cell growth in a cell viability assay.

RKO = conditions: Homo sapiens, RKO;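 also: growth inhibition of human RKO cells, read out with a cell viability assay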
Description: SANGER: Inhibition of human RKO cell growth in a cell viability assay.

RS4-11 = conditions: Homo sapiens, RS4-11;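 also: growth inhibition of RS4-11 cells, read out by a cell viability assay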
Description: SANGER: Inhibition of human RS4-11 cell growth in a cell viability assay.

SK-LMS-1 = conditions: Homo sapiens, SK-LMS-1;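 also: growth inhibition of human SK-LMS-1 cells, read out with a cell viability assay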
Description: SANGER: Inhibition of human SK-LMS-1 cell growth in a cell viability assay.

SK-PN-DW = conditions: Homo sapiens, SK-PN-DW;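 also: growth inhibition measured with a viability assay on these cells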
Description: SANGER: Inhibition of human SK-PN-DW cell growth in a cell viability assay.

ACN = conditions: Homo sapiens, ACN;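 also: growth inhibition of the human ACN cell line, read out via cell viability testing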
Description: SANGER: Inhibition of human ACN cell growth in a cell viability assay.

ATN-1 = conditions: Homo sapiens, ATN-1;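 also: growth inhibition of human ATN-1 cells, read out with a cell viability assay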
Description: SANGER: Inhibition of human ATN-1 cell growth in a cell viability assay.

BB65-RCC = conditions: Homo sapiens, BB65-RCC;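 also: growth inhibition of the cell line, measured with a cell viability assay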
Description: SANGER: Inhibition of human BB65-RCC cell growth in a cell viability assay.

BE-13 = conditions: Homo sapiens, BE-13;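 also: growth inhibition of human BE-13 cells, measured with a cell viability assay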
Description: SANGER: Inhibition of human BE-13 cell growth in a cell viability assay.

TK-10 = conditions: Homo sapiens, TK-10;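 also: growth inhibition of TK-10 cells, read out in a cell viability assay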
Description: SANGER: Inhibition of human TK10 cell growth in a cell viability assay.

CCRF-CEM = conditions: Homo sapiens, CCRF-CEM;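 also: inhibition of CCRF-CEM cell growth, measured by a cell viability assay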
Description: SANGER: Inhibition of human CCRF-CEM cell growth in a cell viability assay.

KLE = conditions: Homo sapiens, KLE;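 also: growth inhibition of human KLE cells, read out with a cell viability assay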
Description: SANGER: Inhibition of human KLE cell growth in a cell viability assay.

Measured: IC50

COc1cc2ncn(-c3cc(OCc4ccccc4S(C)(=O)=O)c(C#N)s3)c2cc1OC [GSK-319347A]
not listed: KLE
> 5 µM: all other assays above

CS(=O)(=O)c1ccc(C(=O)Nc2ccc(Cl)c(-c3ccccn3)c2)c(Cl)c1 [VISMODEGIB]
8.5 µM: ACN
8.05 µM: HDLM-2
not listed: EW-3 | NCI-H69
> 10 µM: all other assays above

COc1cc(N2CCN(C)CC2)ccc1Nc1ncc2c(n1)N(C)c1ccccc1C(=O)N2C
3.42 µM: RS4-11
4.68 µM: RKO
6.6 µM: HOP-62
4.74 µM: NCI-H1770
5.86 µM: LS-513
5.38 µM: KS-1
4.16 µM: ES8
not listed: KLE
> 8 µM: all other assays above
